Assay [1] concerns human LDLs. In words: Modification of the LDLs by copper sulphate (MDA formation). The class given is biochemical. The settings on record: for ability to protect human LDLs compared with probucol or vitamin E, copper sulphate: modifications induced by copper sulphate; for IC50: oxidation by copper sulphate, 24 hours, read-out: IC50 Cu^2+ (inhibition of lipid peroxidation of human LDLs, MDA production). The protocol: Human LDLs are incubated for 24 hours in the presence of copper sulphate (5×10^-5 M or 5×10^-6 M) and in the absence or presence of the test compounds (10^-7 M to 10^-4 M).
After incubation, the peroxidation of the LDLs is evaluated by electrophoresis on agar gel and by the formation of one of the products of lipid peroxidation: malonic dialdehyde (MDA) (Parthasarathy S., Young S. G., Witztum J. L., Pittman R. C., and Steinberg D.; J. Clin. Invest. 77, 641-644, 1986).
The activity of the test compounds is evaluated by calculating the concentrations that reduce the production of MDA by 50% (IC50) compared with control experiments carried out in the absence of test compound.
(§1) Table A lists the IC50 values, which indicate the capacity to inhibit the lipid peroxidation of human LDLs, obtained with a sample of the compounds of the invention and of the reference compounds probucol and vitamin E, in two tests causing the development of the oxidation of the LDLs: by copper sulphate (Cu^2+) or by endothelial cells (EC).

Assay [2] has as its system human LDLs. Nature of the assay: Modification of the LDLs by endothelial cells (MDA formation). The class given is cell-based. Particulars: for ability to protect human LDLs compared with probucol or vitamin E, endothelial cells: modifications induced by endothelial cells; for times more powerful than probucol (endothelial cells): test using endothelial cells; for IC50: oxidation by rabbit aorta endothelial cells, 24 hours, read-out: IC50 EC (inhibition of lipid peroxidation of human LDLs, MDA production). On the procedure:
Human LDLs are incubated for 24 hours in the presence of rabbit aorta endothelial cells (line RECL B4 supplied by Professor Steinberg, USA) and in the absence or presence of the test compounds (10^-7 M to 10^-4 M).
After incubation, the peroxidation of the LDLs is evaluated by electrophoresis on agar gel and by the formation of one of the products of lipid peroxidation: malonic dialdehyde (MDA) (Steinbrecher U.P., Parthasarathy S, Leake D. S., Witztum J. L., and Steinberg D., Proc. Nat. Acad. Sci. USA 81. 3883-3887, 1984).
The activity of the test compounds is evaluated by calculating the concentrations that reduce the production of MDA by 50% (IC50) compared with the control experiments carried out in the absence of test compound.
as §1

A further assay relates to cardiac cells. In words: Oxidative necrosis of cardiac cells induced by hypoxanthine/xanthine oxidase. The format is cell-based, new-born rats. Particulars: for effect on oxidative necrosis of cardiac cells compared with reference compounds: 10^-6 M and 10^-5 M; for activity at 10 µM / activity at 1 µM / activity at 0.1 µM / index of necrosis of cardiac cells: control = 100, means ± sem; for activity at 10 µM / activity at 1 µM / activity at 0.1 µM: read-out: index of necrosis of cardiac cells; for inhibition at 10 µM / inhibition at 1 µM: Cardiomyocyte, read-out: reduction of oxidative necrosis of cardiomyocytes; for index of necrosis of cardiac cells: 240 min. On the procedure:
Cardiac cells of new-born rats are used between the 5th and 6th days after placing in a culture. Oxidative necrosis is induced by the enzymatic system hypoxanthine (HX, 1 mM) and xanthine oxidase (XO, 10 mU/ml), which produces free radicals. The necrosis is evaluated 4 hours after the addition of XO/HX by the spectrophotometric measurement of the cytosolic α-hydroxybutyrate dehydrogenase (α-HBDH) activity liberated in the supernatant. Two reference molecules (probucol, vitamin E) and 3 molecules representative of the present invention (corresponding to Examples 1, 3 and 4) were tested. The cells are treated with the molecules 16 hours and 1 hour before the beginning of the experiment after renewing the medium. At the beginning of the experiment, the treatment is carried out one last time.
Table B lists the indices of the necrosis of cardiac cells induced by the system hypoxanthine/xanthine oxidase on its own or in the presence of increasing concentrations of the compounds of the invention or of the reference compounds: probucol and vitamin E.
The necrosis index 100 corresponds to a liberation of 43.6±1.0% in 4 hours of the cytosolic content of α-HBDH in the supernatant.
The results are expressed in the form of means ± sem (4≤n≤5, 3 repetitions per experiment).

In assay [3] the test system is LDLs of the Watanabe rabbits. Nature of the assay: Ex vivo copper sulphate oxidation of LDLs from orally treated Watanabe rabbits (MDA production). The format is in vivo. The settings on record: for MDA production: 3 days; for dose from which peroxidation of the LDLs is inhibited: oral, peroxidation induced by copper sulphate. On the procedure:
Watanabe rabbits ([…] hyperlipidaemic rabbits) are used that range in weight from 3 kg to 5 kg. The animals are treated orally with the carrier of the test compounds (control group) or with the test compounds at doses of 10, 50 and 250 mg/kg/day for 3 days.
When the treatment is complete, the LDLs of the animals are prepared by ultracentrifugation and subjected to oxidation with copper sulphate (5×10^-6 M). The lipid peroxidation of the LDLs is evaluated after various periods of incubation with copper sulphate (from 2 to 24 hours) by measuring the formation of MDA.
Table C lists the MDA production values according to the incubation period with copper sulphate of those LDLs originating from the control animals and those originating from the animals treated with the compounds of Examples 1, 3 and 31 at different doses or with probucol.

Where [4] appears, read: Rattus norvegicus, 4 h, 10^-5 M.
The mark [5] stands for this setting: Rattus norvegicus, 4 h, 10^-6 M.
Setting [6] is: Rattus norvegicus, 4 h, 10^-7 M.
[7] abbreviates: 250 mg/kg/day oral, 2 hours incubation with copper sulphate.
Where [8] appears, read: 250 mg/kg/day oral, 4 hours incubation with copper sulphate.
Setting [9] is: 250 mg/kg/day oral, 6 hours incubation with copper sulphate.
Where [10] appears, read: 250 mg/kg/day oral, 8 hours incubation with copper sulphate.
Where [11] appears, read: 250 mg/kg/day oral, 24 hours incubation with copper sulphate.

The text below walks through data of patent US5206247A, “Spiro(4.5.)decane compounds” (Adir Et Compagnie, priority 1990, dated 1993).

As usually defined, the IC50 is the concentration needed to halve the response being measured.

Consider `CC(C)(C)c1cc(SCC(O)CN2CCC3(CC2)CNC(=O)O3)cc(C(C)(C)C)c1O` (racemic) [Example 1, (R,S)-8-[3-(3,5-di-tert.-butyl-4-hydroxyphenylthio)-2-hydroxypropyl]-1-oxa-2-oxo-3,8-diazaspiro[4.5]decane], for which the “ability to protect human LDLs compared with probucol or vitamin E, copper sulphate” value with human LDLs [1] is “greater ability”. In addition, the “ability to protect human LDLs compared with probucol or vitamin E, endothelial cells” value in the assay on human LDLs [2] is reported as “greater ability”. Further, in the assay on human LDLs [2], the “times more powerful than probucol (endothelial cells)” value (from here on “times more powerful than probucol”) came to 100 times. The “effect on oxidative necrosis of cardiac cells compared with reference compounds” value in the assay on cardiac cells is reported as “distinctly superior to the reference compounds”. Moreover, the activity at 10 µM in the assay on cardiac cells (setting [4]) amounted to 3.8 ± 1.9%. The activity at 1 µM in the assay with cardiac cells (setting [5]) was determined as 19.1 ± 7.3%. In addition, the activity at 0.1 µM with cardiac cells (setting [6]) is 42.8 ± 11.3%. In the assay with cardiac cells (Rattus norvegicus, 4 h, starting from 10^-7 M, read-out: protective effect on oxidative necrosis of cardiac cells), the inhibition at 0.1 µM is > 50%. In the assay on cardiac cells (setting [4]), the inhibition at 10 µM is > 95%. Also, the inhibition at 1 µM in the assay with cardiac cells (setting [5]) was > 80%. Moreover, the MDA production in assay [3] (setting [7]) is 0.2 nM/mg proteins; in assay [3] (setting [8]) it was 1.27 nM/mg proteins; in assay [3] (setting [9]), 0 nM/mg proteins; in assay [3] (setting [10]), 0 nM/mg proteins; in assay [3] (setting [11]), 1.02 nM/mg proteins. Moreover, the “dose from which peroxidation of the LDLs is inhibited” value in assay [3] is on record as ≥ 50 mg/kg/day.

With `Cc1cc(SCC(O)CN2CCC3(CC2)CNC(=O)O3)c(C)c(C)c1O` (stereo not shown) [Example 32], the IC50 in the assay on human LDLs [1] was determined as 300 nM. Also, in the assay with human LDLs [2], the “times more powerful than probucol” value stood at 100 times.

With `CC(C)(C)c1cc(OCCCN2CCC3(CC2)CNC(=O)O3)cc(C(C)(C)C)c1O` [Example 6], in the assay on human LDLs [1], the “ability to protect human LDLs compared with probucol or vitamin E, copper sulphate” value is given as “greater ability” and the IC50 was 300 nM. For the same compound, in the assay on human LDLs [2], the “ability to protect human LDLs compared with probucol or vitamin E, endothelial cells” value is reported as “greater ability” and the IC50 worked out at 300 nM.

On to `Cc1cc(OCCCCCN2CCC3(CC2)CNC(=O)O3)c(C)c(C)c1O` [Example 30], for which, in the assay with human LDLs [1], the IC50 was found to be 300 nM.

As to `CC(C)(C)c1cc(OCC(O)CN2CCC3(CC2)CNC(=O)O3)cc(C(C)(C)C)c1O` (stereo not shown) [Example 7], the IC50 with human LDLs [1] amounted to 2000 nM.

Turning to `CC(C)(C)c1cc(OCCCCCN2CCC3(CC2)CNC(=O)O3)cc(C(C)(C)C)c1O` [Example 5], in the assay on human LDLs [1], the “ability to protect human LDLs compared with probucol or vitamin E, copper sulphate” value is listed as “greater ability” and the IC50 was 700 nM. In the assay on human LDLs [2], the “ability to protect human LDLs compared with probucol or vitamin E, endothelial cells” value is “greater ability” and the IC50 was found to be 800 nM.

For `Cc1c(C)c2c(c(C)c1O)CCC(C)(CCN1CCC3(CC1)CNC(=O)O3)O2` (stereo not shown) [Example 33], the IC50 in the assay on human LDLs [1] came to 300 nM.

Consider `Cc1c(C)c2c(c(C)c1O)CCC(C)(CCCN1CCC3(CC1)CNC(=O)O3)O2` (stereo not shown) [Example 34], for which, in the assay on human LDLs [1], the IC50 was found to be 300 nM.

On to `CC(C)(CCN1CCC2(CC1)CNC(=O)O2)Sc1cc(C(C)(C)C)c(O)c(C(C)(C)C)c1` [Example 31], for which, in the assay with human LDLs [1], the “ability to protect human LDLs compared with probucol or vitamin E, copper sulphate” value is “greater ability”. Moreover, the results for the IC50 with human LDLs [1] and in the assay with human LDLs [2] were 800 nM and 20 nM, respectively. Also, in the assay on human LDLs [2], the “ability to protect human LDLs compared with probucol or vitamin E, endothelial cells” value was “greater ability”. Also, the MDA production worked out at 0.33 nM/mg proteins in assay [3] (50 mg/kg/day oral, 2 hours incubation with copper sulphate); 0.72 nM/mg proteins in assay [3] (50 mg/kg/day oral, 4 hours incubation with copper sulphate); 1.03 nM/mg proteins in assay [3] (50 mg/kg/day oral, 6 hours incubation with copper sulphate); 1.04 nM/mg proteins in assay [3] (50 mg/kg/day oral, 8 hours incubation with copper sulphate); 3.16 nM/mg proteins in assay [3] (50 mg/kg/day oral, 24 hours incubation with copper sulphate); 0.19 nM/mg proteins in assay [3] (setting [7]). The MDA production in assay [3] (setting [8]) worked out at 0.51 nM/mg proteins; in assay [3] (setting [9]) it was 0.16 nM/mg proteins; in assay [3] (setting [10]) it was 0.71 nM/mg proteins; in assay [3] (setting [11]), 0.99 nM/mg proteins. The “dose from which peroxidation of the LDLs is inhibited” value in assay [3] is reported as ≥ 50 mg/kg/day.

With `CC(C)(C)c1cc(SCCCCCN2CCC3(CC2)CNC(=O)O3)cc(C(C)(C)C)c1O` [Example 4], in the assay on human LDLs [1], the “ability to protect human LDLs compared with probucol or vitamin E, copper sulphate” value is given as “greater ability” and the half-maximal inhibitory concentration (IC50) is 800 nM. In addition, in the assay with human LDLs [2], the “ability to protect human LDLs compared with probucol or vitamin E, endothelial cells” value is “greater ability”; the IC50 came to 20 nM; the “times more powerful than probucol” value is 100 times. Moreover, in the assay with cardiac cells, the “effect on oxidative necrosis of cardiac cells compared with reference compounds” value was “distinctly superior to the reference compounds”. In addition, in the assay on cardiac cells (setting [4]), the activity at 10 µM was 2.6 ± 0.7% and the inhibition at 10 µM was > 95%. Further, in the assay with cardiac cells (setting [5]), the activity at 1 µM is 2.1 ± 1% and the inhibition at 1 µM was > 80%. In the assay with cardiac cells (setting [6]), the activity at 0.1 µM turned out to be 79.1 ± 8%.

vitamin E [reference compound]: the values for the IC50 in the assay with human LDLs [1] and in the assay on human LDLs [2] were > 100000 nM and 4000 nM, respectively. For the same compound, the “index of necrosis of cardiac cells” value was 61.1 ± 2.5 with cardiac cells (10^-5 M, 10 µM); 79.0 ± 7.4 in the assay with cardiac cells (10^-6 M, 1 µM); 83.5 ± 8.0 with cardiac cells (10^-7 M, 0.1 µM).
